For orientation: EC50 means the concentration that produces a half-maximal response. One may read the IC50 as the concentration at which inhibition is half-maximal. A low value points to greater potency in that assay.

Consider 70 compounds from PubChem BioAssay AID179 (DTP/NCI, 2004).

The source made the active and inactive calls.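 The calls were made as follows: active = compounds giving half or more protection of infected cells from virus-caused growth loss, again on retest; inactive = the rest.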 Where a SMILES comes first, the peptide text is derived from it. The star is where a group is joined. Boc = CC(C)(C)OC(=O)*; OBn = c1ccc(CO*)cc1

In this test the test system is CEM cells HIV-1 protection, formazan growth assay. The test is described as follows: NCI AIDS Antiviral Assay. Particulars: for IC50: measured here: growth of uninfected CEM cells. The procedure, abridged: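 Soluble formazan readout of cell growth; CEM cells ± HIV-1; 5 drug concs. ≥50% protection → retest; ≥50% again = moderately active; reproducible 100% = confirmed active.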

For `CCN(CCCl)CCCCCNc1c2ccccc2nc2ccc(OC)cc12`, the outcome was inactive.

On to `C/C(=C/CNc1ncnc2c1ncn2CCC#N)CO`, for which the EC50 is more than 200 µM and the half-maximal inhibitory concentration (IC50) is more than 200 µM.

For the compound `Nc1nccc(CC(O)(c2ccccc2)c2ccccc2)n1`, the EC50 was more than 64.6 µM and the IC50 was more than 64.6 µM.

Turning to `CC1(C)C(=O)/C=C\C(=O)C(C)(C)C(=O)/C=C\C(=O)C(C)(C)C(=O)/C=C\C(=O)C(C)(C)C(=O)/C=C\C1=O`, the result was inactive.

With `Nc1ccccc1OCCCOc1ccccc1N`, the EC50 was more than 200 µM and the half-inhibitory concentration (IC50) stood at 110 µM.

Take `COC(=O)c1cc(/C=C2\Cc3cc4c(cc3C2=O)CCC4)cc2c1CCC2`: the EC50 is more than 200 µM and the IC50 is more than 200 µM.

On to `COC(=O)/C(=C\c1ccc(N(CCC#N)CCC#N)cc1)NC(=O)c1cc([N+](=O)[O-])ccc1Cl`, for which the EC50 is more than 74.1 µM and the IC50 was more than 74.1 µM.

On to `O=C1c2ccccc2C2CCC1c1ccccc12` (stereo unspecified), for which the concentration for a half-maximal effect (EC50) was more than 32.4 µM and the half-maximal inhibitory concentration (IC50) is 26.3 µM.

With `O=C1C/C(=C\c2ccccc2)C(=O)c2ccccc2N1`, the EC50 is more than 200 µM and the IC50 is 12.6 µM.

As to `COc1ccc2c(c1O)-c1c(OC)c(OC)cc3c1C(C2)N(C)CC3` (stereo unspecified), the EC50 was more than 200 µM and the IC50 was more than 200 µM.

As for `C[N+](C)(C)CC1Cc2ccccc2C1=O` (stereo unspecified), the outcome was inactive.

In the case of `CC(=O)NCS(=O)(=O)O`, the EC50 was more than 200 µM and the concentration for half-maximal inhibition (IC50) is more than 200 µM.

For the compound `C[C@@H]1C[C@H]2[C@@H]3C[C@H](F)C4=CC(=O)C=C[C@]4(C)[C@@]3(F)[C@@H](O)C[C@]2(C)C1C(=O)COC(=O)c1cccc2c(=O)c3ccccc3[nH]c12` (stereo partly specified), the EC50 was more than 100 µM and the IC50 worked out at 2 µM.

As for `C=CCNC(=O)NC1=CSC2=NC(=O)C3(NN12)c1ccccc1-c1ccccc13`, the EC50 is more than 200 µM and the IC50 was found to be 58.9 µM.

For `O=C1CSC(c2c[nH]c3ccccc23)N1c1ccccc1[N+](=O)[O-]` (stereo unspecified), the EC50 is more than 389 µM and the IC50 is more than 389 µM.

For the compound `COC(=O)CC(=O)OSc1ccccc1`, the EC50 was more than 251 µM and the half-inhibitory concentration (IC50) turned out to be 18.2 µM.

On to `COc1ccc(OC)c(NC(=O)CCC/C(CC(=O)c2ccc(O)c(OC)c2)=N\Nc2ccc([N+](=O)[O-])cc2)c1`, for which the EC50 is more than 13.2 µM and the half-maximal inhibitory concentration (IC50) was more than 13.2 µM.

For the compound `CC1(C)CC2C(/C1=N/O)C1(C)CCCC2(C)C1O` (stereo unspecified), the EC50 is more than 200 µM and the 50% inhibitory concentration (IC50) is more than 200 µM.

In the case of `CCOC(=O)c1c(N)n(-c2ccccc2)c(=O)n(-c2ccccc2)c1=O`, the EC50 was more than 708 µM and the IC50 came to 372 µM.

As for `COc1cc(C(=O)[O][Sn]([c]2ccccc2)([c]2ccccc2)[c]2ccccc2)cc(OC)c1OC`, the EC50 is more than 200 µM and the IC50 turned out to be 0.0631 µM.

As for `Cc1ccccc1-c1nc(/C=C2\C(=O)C=Cc3ccccc32)c(O)o1`, the EC50 is more than 200 µM and the IC50 was more than 200 µM.

As to `CCOC1=NC(C(F)(F)F)(C(F)(F)F)N=C(/N=C(/N)N(C)C(C(C)C)P(=O)(OC(C)C)OC(C)C)O1` (stereo unspecified), the EC50 was more than 200 µM and the half-inhibitory concentration (IC50) turned out to be 31.6 µM.

Regarding `CCOC(=O)C1(CC)OC12CCCCC2` (stereo unspecified), the EC50 is more than 200 µM and the IC50 is more than 200 µM.

Take `CC(C)CC(NC(=O)OC(C)(C)C)C(=O)NC(CC(=O)OCc1ccccc1)C(N)=O` (stereo not drawn) (Boc-Leu-Asp(OBn)-NH2; configuration not given here): the EC50 is more than 200 µM and the concentration for half-maximal inhibition (IC50) was more than 200 µM.

On to `O=C1c2ccccc2C=c2c1nc1c(O)ccc3cccc2c31`, for which the EC50 was more than 100 µM and the IC50 worked out at 15.5 µM.

Consider `CC(C)=CCC[C@@H](C)c1c2[nH]c3ccccc3sc-2c(C)c(=O)c1=O`, for which the EC50 is more than 200 µM and the IC50 is 4.27 µM.

As for `CCOc1ncnc2ccc(Cl)c(I)c12`, the EC50 is more than 77.6 µM and the IC50 was more than 77.6 µM.

On to `O=S(=O)(c1ccccc1)n1c(C(O)c2ccccc2)cc2ccccc21` (stereo unspecified), for which the EC50 was more than 200 µM and the IC50 amounted to 17.8 µM.

In the case of `CCOC(=O)CC(=O)Sc1ccccc1`, the EC50 was more than 251 µM and the IC50 is 20.9 µM.

On to `c1ccc2c(c1)oc1cc3c(cc12)ncc1cccn13`, for which the EC50 is more than 200 µM and the 50% inhibitory concentration (IC50) was more than 200 µM.

With `CC[N+](C)(CC)CCNC(=O)C(O)(c1ccccc1)c1ccccc1`, the EC50 was more than 200 µM and the half-maximal inhibitory concentration (IC50) was more than 200 µM.

Take `CC1=N/C(=C\c2ccccc2F)C(=O)O1`: the EC50 is more than 631 µM and the half-maximal inhibitory concentration (IC50) was more than 631 µM.

With `COCOC1C(=O)N(c2ccccc2)[C@@H]1c1ccccc1` (stereo partly specified), the EC50 was more than 91.2 µM and the IC50 is more than 91.2 µM.

As to `Cc1c(C2=NN=C(N=Nc3c(O)cccc3O)/C2=C/c2ccccc2)c(=O)n(-c2ccccc2)n1C`, the result was inactive.

For the compound `C=C1C(=O)O[C@@H]2[C@H]1CC[C@H](C)[C@@H]1CCC(=O)[C@@]21C`, the EC50 is more than 200 µM and the 50% inhibitory concentration (IC50) stood at 3.39 µM.

As for `C1=C(c2ccccc2)C(OC2Oc3ccccc3C=C2c2ccccc2)Oc2ccccc21` (stereo unspecified), the EC50 was more than 31.6 µM and the IC50 is more than 31.6 µM.

With `COc1ccc(/C=C2\SC(=S)N(/C=C/c3nc4ccccc4[nH]c3=O)C2=O)cc1OC`, the EC50 is more than 200 µM and the half-maximal inhibitory concentration (IC50) is 32.4 µM.

For the compound `CCOC(=O)c1cc(NC(=O)c2ccccc2)c(=O)n2c(cc3c(Cl)cccc32)c1O`, the EC50 was more than 200 µM and the half-maximal inhibitory concentration (IC50) was more than 200 µM.

Consider `c1ccc2c(CN3CCC(C4CCN(Cc5cccc6ccccc56)CC4)CC3)cccc2c1`, for which the EC50 was more than 200 µM and the IC50 came out at 0.933 µM.

For the compound `CC(C)(C)OC(=O)NC(Cc1ccc(O)cn1)C(=O)O` (stereo unspecified), the EC50 is more than 200 µM and the IC50 was more than 200 µM.

Consider `O=C(N/C(=C\c1ccc(Br)cc1)c1nc2ccccc2[nH]1)c1ccccc1`, for which the EC50 was more than 61.7 µM and the half-inhibitory concentration (IC50) is 33.9 µM.

For the compound `COCC12CC(CC1=O)C1C2ON2c3ccccc3C(=O)C12c1ccccc1` (stereo unspecified), the EC50 was more than 50.1 µM and the IC50 is more than 50.1 µM.

As to `N#C/C(=C\NC(=S)N=Nc1c(O)[nH]c2ccccc12)C(=O)c1ccc2ccccc2c1`, the EC50 is more than 200 µM and the half-inhibitory concentration (IC50) was found to be 120 µM.

Turning to `O=C1/C(=C/c2ccc(Cl)cc2)Sc2scc(-c3cccc([N+](=O)[O-])c3)[n+]21`, the EC50 was more than 200 µM and the concentration for half-maximal inhibition (IC50) amounted to 1.38 µM.

`CN1CCN(Cc2nc3cccc4c3c([n+]2[O-])-c2ccccc2-4)CC1`: the result was inactive.

As for `Cn1c(=O)c2ccc(-c3ccc(Br)cc3)nc2n(C)c1=O`, the result was inactive.

On to `C=CCn1c(=O)c2ccccc2[n+]2c(C)c(C(=O)OCC)sc12`, for which the EC50 was 132 µM and the IC50 was more than 200 µM.

Consider `CCOC(=S)SSSC(=S)OCC`, for which the EC50 was more than 110 µM and the 50% inhibitory concentration (IC50) worked out at 34.7 µM.

As to `CN(C(=O)c1ccc(Cl)cc1)C(=S)N1CCN(c2ccccn2)CC1`, the EC50 is more than 69.2 µM and the half-inhibitory concentration (IC50) amounted to 61.7 µM.

Consider `CCCCCC1OC1(c1cc(Br)c(OC)c(C(=O)OC)c1)c1cc(Br)c(OC)c(C(=O)OC)c1` (stereo unspecified), for which the EC50 was more than 200 µM and the 50% inhibitory concentration (IC50) came to 67.6 µM.

On to `O=c1[nH]c2ccccc2c(=O)n1/N=C\c1ccc([N+](=O)[O-])cc1`, for which the EC50 was more than 200 µM and the IC50 is more than 200 µM.

For `CC[N+]1(C)CCC(O)(c2ccccc2)C(C(=O)c2ccccc2)C1` (stereo unspecified), the result was inactive.

Turning to `SC1N=C(c2ccco2)N2C(S)N=C(c3ccccc3)N12` (stereo unspecified), the EC50 was more than 200 µM and the IC50 amounted to 182 µM.

With `COc1cc(/C=C/C(=O)O)ccc1OS(=O)(=O)O`, the EC50 is more than 200 µM and the half-inhibitory concentration (IC50) is more than 200 µM.

As for `CC1(C)CCC2(C(=O)OC3OC(CO)C(O)C(O)C3O)CCC3(CO)C(=CCC4C5(C)CC(O)C(O)C(C)(C(=O)OC6OC(CO)C(O)C(O)C6O)C5CCC43C)C2C1` (stereo unspecified), the result was inactive.

For the compound `CC1(C(=O)O)CCCC2(C)C3=CC(=O)CCC3=CCC12` (stereo unspecified), the EC50 is more than 200 µM and the IC50 came to 186 µM.

On to `Nc1c(Cl)cccc1-c1c[nH]c(Cl)c1Cl`, for which the EC50 was more than 138 µM and the IC50 is 72.4 µM.

`CC(=O)N1CCSC(C(=O)Nc2ccccc2)=C1C`: the EC50 is more than 646 µM and the half-maximal inhibitory concentration (IC50) was more than 646 µM.

As for `CCN1C[C@]2(COC)CCC(O)C34[C@@H]5C[C@@H]6C(O)[C@@H]5[C@](O)(C[C@@H]6OC)[C@@H](C(OC)[C@@H]32)[C@H]14` (stereo partly specified), the result was inactive.

On to `COc1ccc(-c2cnoc2-c2ccc(OC)c(OC)c2)cc1OC`, for which the EC50 was more than 55 µM and the half-inhibitory concentration (IC50) came to 0.355 µM.

On to `CC(C)C(NC(=O)Oc1ccccc1)C(=O)NC1c2c(Br)sc(Br)c2C(=O)C1O` (stereo unspecified), for which the EC50 is more than 200 µM and the IC50 was 11.7 µM.

Consider `CC1CN1P(=O)(OCCC#N)N1CC1C` (stereo unspecified), for which the EC50 was more than 200 µM and the IC50 is more than 200 µM.

Turning to `CCN1C(=O)c2cc(OC)c(OC)cc2C(=O)C12OC(=O)c1cc3c(cc12)OCO3` (stereo unspecified), the EC50 was more than 200 µM and the IC50 was 93.3 µM.

Consider `C/C(O)=C(\C=N\C(N)=S)C(=O)Nc1ccc(Cl)cc1`, for which the EC50 was more than 200 µM and the IC50 was more than 100 µM.

On to `CC1CC(C)C(=O)C(C(=O)CC2CC(=O)NC2=O)C1` (stereo unspecified), for which the EC50 was more than 200 µM and the IC50 is more than 200 µM.

On to `O=c1c2ccccc2c(=O)c2c1c1c(=O)c3ccccc3c(=O)c1c1c(=O)c3ccccc3c(=O)c21`, for which the EC50 is more than 200 µM and the IC50 is more than 200 µM.

In the case of `COC1(OC)C2(Cl)CC(OC(C)=O)C1(Cl)C(Cl)=C2Cl` (stereo unspecified), the EC50 is more than 200 µM and the half-inhibitory concentration (IC50) is more than 100 µM.

For the compound `CC(=O)OC12c3ccccc3C1CCCC21OCCCO1` (stereo unspecified), the EC50 is more than 200 µM and the IC50 was more than 200 µM.

On to `Cc1ccc(Nc2nc(C)c(C(=O)C/C(=N\NC(N)=S)C(=O)Nc3ccc(Cl)cc3C)s2)cc1`, for which the EC50 was more than 200 µM and the concentration for half-maximal inhibition (IC50) was more than 200 µM.

Consider `Cn1cc(NC(=O)c2cc(NC(=O)Nc3cc(C(=O)Nc4cc(C(=O)Nc5ccc6cc(S(=O)(=O)O)cc(S(=O)(=O)O)c6c5)n(C)c4)n(C)n3)nn2C)cc1C(=O)Nc1ccc2cc(S(=O)(=O)O)cc(S(=O)(=O)O)c2c1`, for which the concentration giving a half-maximal response (EC50) was 6.17 µM and the half-maximal inhibitory concentration (IC50) was more than 100 µM.
